Experiment in all cases: NCI-60 cell line screen, 48 h
Assay [1] relates to K562.
Assay [2] has as its system BT-549.
The test system of assay [3] is SN12C.
In assay [4] the test system is HCT-116.
For assay [5], the system named is SR.
Assay [6] concerns HT-29.
Assay [7] concerns IGROV-1.
For assay [8], the system named is NCI/ADR-RES.
Assay [9] concerns SK-OV-3.
In assay [10] the test system is OVCAR-3.
The test system of assay [11] is OVCAR-8.
The subject of assay [12] is ACHN.
Assay [13] concerns Malme-3M.
The subject of assay [14] is OVCAR-5.
The test system of assay [15] is 786-0.
Assay [16] concerns NCI-H460.
Assay [17] relates to SNB-75.
In assay [18] the test system is CCRF-CEM.
Assay [19] deals with U-251.
Assay [20] relates to T47D.

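Dose response: 5 concentrations. Exposure: 48 h. Format: 96-well plates. Endpoint: linear interpolation; highest concentration if not reached. GI50 marks 50% less growth.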 Activity calls are given as the source filed them. Cut-off read from the data, not from the text of the source: active = GI50 up to about 1.1 µM and inactive = higher. A value given as a limit tells only on which side of the number the result lay.

For the compound `COc1ccc(NCC(=O)Nn2c(C)nc3ccc(S(=O)(=O)Nc4ccc(OC)cc4)cc3c2=O)cc1`, the GI50 in assay [1], in assay [2], in [3], in assay [4], in [5] and in assay [6] was > 100 µM (inactive) throughout. In addition, the GI50 in assay [7] was 69.7 µM (inactive); in assay [8] it was > 100 µM (inactive); in assay [9] it was > 100 µM (inactive); in [10] it was > 100 µM (inactive); in assay [11], > 100 µM (inactive); in [12], > 100 µM (inactive). Also, the GI50 in [13], in assay [14], in assay [15], in [16], in assay [17] and in [18] was > 100 µM (inactive) in each case. For the same compound, in assay [19], the GI50 is > 100 µM (inactive).
As to `COc1ccc(CN2C[C@H]3[C@@H](CC(=O)O[C@H]3C)CC2=O)cc1`, the GI50 in [1], in assay [2], in assay [4], in assay [5], in assay [6] and in [7] was > 100 µM (inactive) throughout. Moreover, the GI50 in assay [8], in assay [9], in [10], in [11], in [12] and in assay [13] was > 100 µM (inactive) each time. Besides, the GI50 in [14], in assay [15], in assay [16], in assay [17], in [18] and in [19] was > 100 µM (inactive) each time.
Turning to `N=c1c2c(ncn1N)Oc1c(c(-c3ccccc3)nn1-c1ccccc1)C2c1ccc(Cl)cc1` (stereo not given), the GI50 in [1] is 0.731 µM (active); in assay [3] it was 1.79 µM (inactive); in assay [4], 1.49 µM (inactive); in [5], 0.918 µM (active); in assay [6], 1.39 µM (inactive); in assay [7], 1.43 µM (inactive). Moreover, the GI50 was 1.68 µM (inactive) in assay [8]; 1.85 µM (inactive) in assay [9]; 1.56 µM (inactive) in assay [10]; 1.95 µM (inactive) in [11]; 2.04 µM (inactive) in assay [12]; 1.61 µM (inactive) in assay [13]. The GI50 in assay [14] was 1.5 µM (inactive); in assay [15], 1.63 µM (inactive); in [16], 1.42 µM (inactive); in [20] it was 2.3 µM (inactive); in assay [17] it was 1.5 µM (inactive); in assay [18], 2.47 µM (inactive). In addition, the GI50 in assay [19] is 1.65 µM (inactive).
With `Cc1ccccc1OC(C)C(=O)NN1C(=O)CC(=O)N(c2ccccc2)C1=S` (stereo not given), the GI50 was 41.4 µM (inactive) in assay [1]; > 100 µM (inactive) in [2]; 43.7 µM (inactive) in assay [3]; 33.4 µM (inactive) in [4]; 76 µM (inactive) in [6]; 80.4 µM (inactive) in assay [7]. For the same compound, the GI50 in assay [8] is 61 µM (inactive); in assay [9], > 100 µM (inactive); in [10] it was 53.2 µM (inactive); in [11], 56.6 µM (inactive); in assay [12], 53.8 µM (inactive); in [13] it was > 100 µM (inactive). Also, the GI50 in assay [14] was > 100 µM (inactive); in [15], 82.4 µM (inactive); in assay [16] it was 45.8 µM (inactive); in assay [20], 35.3 µM (inactive); in assay [17], 48.3 µM (inactive); in assay [19] it was 62.7 µM (inactive).
As to `O=c1[nH]nc(Cc2ccc(Cl)cc2)n1/N=C/c1c[nH]c2ccccc12`, the GI50 in [1], in [3], in assay [4], in assay [5], in assay [6] and in [7] was > 100 µM (inactive) each time. Moreover, the GI50 in [8] is 82.8 µM (inactive); in assay [9], > 100 µM (inactive); in [10], > 100 µM (inactive); in assay [11] it was > 100 µM (inactive); in assay [12], > 100 µM (inactive); in assay [13], > 100 µM (inactive). The GI50 in assay [14], in assay [15], in assay [16], in assay [20], in [17] and in [18] was > 100 µM (inactive) each time. Further, the GI50 in assay [19] was > 100 µM (inactive).
Consider `CC(C)[Si](OC1=C(C(=O)N(C)c2ccccc2Cl)CCCC1)(C(C)C)C(C)C`, for which the GI50 was 6.15 µM (inactive) in [1]; 5.43 µM (inactive) in assay [5]; 15.8 µM (inactive) in [6]; 16.9 µM (inactive) in assay [7]; 14.9 µM (inactive) in assay [8]; 14.7 µM (inactive) in [9]. In addition, the GI50 was 13.2 µM (inactive) in assay [10]; 16.2 µM (inactive) in [11]; 15.5 µM (inactive) in assay [12]; 13 µM (inactive) in assay [13]; 12.8 µM (inactive) in assay [14]; 17.1 µM (inactive) in assay [15]. For the same compound, the GI50 in assay [16] was 12.9 µM (inactive); in assay [20], 2.55 µM (inactive); in [17], 14.3 µM (inactive); in assay [18], 12.7 µM (inactive); in [19] it was 12.1 µM (inactive).
`Cc1ccc(S(=O)(=O)Nn2c(-c3ccccc3)c(C#N)c(-c3ccc([N+](=O)[O-])cc3)c(C#N)c2=O)cc1`: the GI50 is > 100 µM (inactive) in assay [2]; > 100 µM (inactive) in [3]; > 100 µM (inactive) in assay [4]; > 100 µM (inactive) in [6]; 70.8 µM (inactive) in assay [7]; > 100 µM (inactive) in assay [8]. The GI50 in assay [9], in [11], in assay [12], in [13], in assay [14] and in assay [15] was > 100 µM (inactive) throughout. Besides, the GI50 in assay [16] is > 100 µM (inactive); in assay [17], 96.6 µM (inactive); in [18] it was 32.1 µM (inactive); in assay [19] it was > 100 µM (inactive).
On to `CCN(CC)CCC(=O)O[C@H]1CC[C@H](CC(C)[C@H]2CC(=O)C(C)C=C(C)[C@H](OC(=O)CCN(CC)CC)C(OC)C(=O)[C@@H](C)CC(C)/C=C/C=C/C=C(C)C(OC)CC3CC[C@H](C)[C@](O)(O3)C(=O)C(=O)N3CCCCC3C(=O)O2)CC1OC` (stereo not given in full), for which the GI50 in [2] is < 0.01 µM (active); in [3], 0.0847 µM (active); in assay [4], 0.865 µM (active); in assay [6], 0.21 µM (active); in assay [8], 0.697 µM (active); in [9] it was 0.0314 µM (active). The GI50 in assay [10] is 0.202 µM (active); in assay [11], 0.0362 µM (active); in assay [12], 0.348 µM (active); in assay [13] it was < 0.0108 µM (active); in assay [14], 1.31 µM (inactive); in [15], 0.0197 µM (active). Further, the GI50 in assay [16] was 0.157 µM (active); in [20] it was 0.0144 µM (active); in [17] it was 0.0179 µM (active); in [18] it was < 0.0119 µM (active); in [19], 0.0883 µM (active).
With `CC(N)(/C=C/c1ccccc1)C(=O)O` (stereo not given), the GI50 in assay [1], in assay [2], in [3], in assay [4], in assay [5] and in assay [6] was > 100 µM (inactive) throughout. The GI50 in assay [7], in assay [8], in assay [9], in [10], in assay [11] and in [12] was > 100 µM (inactive) in each case. Also, the GI50 in assay [13], in assay [14], in [15], in [16] and in [19] was > 100 µM (inactive) in each case.
For `Cc1ccc(S(=O)(=O)NC(=O)N[C@@H](Cc2c[nH]cn2)C(=O)O)cc1`, the GI50 in [1], in assay [2], in assay [3], in assay [4], in [6] and in [7] was > 100 µM (inactive) throughout. Moreover, the GI50 in assay [8], in assay [9], in [11], in assay [12], in assay [13] and in assay [14] was > 100 µM (inactive) each time. The GI50 in assay [15], in assay [16], in assay [20], in assay [17], in assay [18] and in assay [19] was > 100 µM (inactive) throughout.
On to `CC1(C)OC(=O)C2(O1)C(=O)C1CCCCC12` (stereo not given), for which the GI50 is > 100 µM (inactive) in [1]; 23.9 µM (inactive) in [2]; 3.63 µM (inactive) in assay [3]; > 100 µM (inactive) in assay [4]; > 100 µM (inactive) in assay [6]; > 100 µM (inactive) in [7]. Also, the GI50 in assay [8] was > 100 µM (inactive); in assay [9] it was 8.51 µM (inactive); in assay [10], > 100 µM (inactive); in assay [11], > 100 µM (inactive); in assay [12], > 100 µM (inactive); in [13] it was 67.9 µM (inactive). For the same compound, the GI50 is 44.6 µM (inactive) in assay [14]; 35.6 µM (inactive) in [15]; > 100 µM (inactive) in assay [20]; 8.97 µM (inactive) in assay [18]; 97.1 µM (inactive) in [19].

Source of the values: ChEMBL document CHEMBL1201862, “PubChem BioAssay data set” (2004).
